PubChem BioAssay AID652280 (Broad Institute, 2013)
Inconclusive results are not listed. The source made the active and inactive calls. The rule behind the calls is not given here.

Assay: mouse embryonic fibroblast toxicity – cell-based, plate reader, dry powder, set 2, cytotoxicity control, dose response (AID 652280)
Details: NIH/3T3 mouse fibroblast toxicity, plate reader; at 16 µM (top of the series)

| SMILES | activity change, negative = toxicity |
| --- | --- |
| CN(C)CC#Cc1cccc(-c2nc(C(=O)O)cc3c2[C@H](CCO)N(S(=O)C(C)(C)C)C3)c1 (some centres not stated) | -1.94% (inactive) |
| CN(C)CC#Cc1cccc(-c2nc(C(=O)NCc3ccc(Oc4ccccc4)cc3)cc3c2[C@H](CCO)N(S(=O)C(C)(C)C)C3)c1 (some centres not stated) | 63.9% (inactive) |
| CN(C)CC#Cc1cccc(-c2nc(C(=O)NCCCN3CCOCC3)cc3c2[C@H](CCO)N(S(=O)C(C)(C)C)C3)c1 (some centres not stated) | 16% (inactive) |
| COc1ccc(CCN(C)C(=O)C2CCCN(Cc3ccc(OC)c(OC)c3)C2)cc1OC (configuration not stated) | 6.14% (inactive) |
| CC(C)(O)C#Cc1cccc(-c2nc(C(=O)NCc3ccc4c(c3)OCO4)cc3c2[C@H](CCO)N(S(=O)C(C)(C)C)C3)c1 (some centres not stated) | -19.2% (inactive) |
| CC(C)N1C[C@H](CN)Oc2c(NC(=O)c3ccncc3)cccc2C1=O | 4.38% (inactive) |
| CN(C)C(=O)c1cccc(-c2ccc([C@@H]3[C@@H](CO)N4CCCCN(C(=O)C5CCC5)C[C@@H]34)cc2)c1 | 0.445% (inactive) |
| C[C@@H](CO)N1CC[C@H](CNC(=O)OC(C)(C)C)Oc2c(NC(=O)c3ccncc3)cccc2C1=O | 2.74% (inactive) |
| CC(C)N1C[C@@H](C)[C@H](CN(C)C(=O)OC(C)(C)C)Oc2c(C(=O)O)cccc2C1=O | 14.1% (inactive) |
| CN(C)CC#Cc1cccc(-c2nc(C(=O)NCc3ccc4c(c3)OCO4)cc3c2[C@@H](CCO)N(S(=O)C(C)(C)C)C3)c1 (some centres not stated) | 0.74% (inactive) |
| C[C@H]1CN([C@@H](C)CO)C(=O)c2cccc(NC(=O)c3ccncc3)c2O[C@@H]1CN(C)Cc1ccccc1Cl | -7.97% (inactive) |
| CN(C)CC#Cc1cccc(-c2nc(C(=O)N3CCN(C)CC3)cc3c2[C@@H](CCO)N(S(=O)C(C)(C)C)C3)c1 (some centres not stated) | 18.9% (inactive) |
| CC(C)N1C[C@H](C)[C@@H](CN(C)Cc2ccc(Oc3ccccc3)cc2)Oc2c(cccc2-c2nn[nH]n2)C1=O | 28.7% (inactive) |
| CN(C)C(=O)c1cccc(-c2ccc([C@H]3[C@@H](CO)N4CCCCN(C(=O)C5CCCC5)C[C@@H]34)cc2)c1 | 28.8% (inactive) |
| CC(C)N1CC2(CN(C(=O)c3ccc(Cl)cc3)C2)Oc2c(NC(=O)c3ccncc3)cccc2C1=O | 10.5% (inactive) |
| COc1cccc(CN(C)C[C@H]2Oc3c(NC(=O)c4ccncc4)cccc3C(=O)N([C@@H](C)CO)C[C@@H]2C)c1 | 6.03% (inactive) |

| SMILES | activity change, negative = toxicity |
| --- | --- |
| CC(C)(C)S(=O)N1Cc2cc(C(=O)NCc3ccc4c(c3)OCO4)nc(-c3cccc(C#CCC4CCCC4)c3)c2[C@@H]1CCO (some centres not stated) | 83.4% (inactive) |
| COc1ccc(S(=O)(=O)N(C)C[C@H]2OCCCC[C@@H](C)Oc3ccc(N(C)C)cc3C(=O)N([C@H](C)CO)C[C@@H]2C)cc1 | 12.3% (inactive) |
| Cc1ccccc1-c1ccc([C@H]2[C@H](CO)N3CCCCN(C(=O)c4cccnc4)C[C@@H]23)cc1 | -15% (inactive) |
| COCCNC(=O)c1cc2c(c(-c3cccc(C#CCN(C)C)c3)n1)[C@H](CCO)N(S(=O)C(C)(C)C)C2 (some centres not stated) | 20.8% (inactive) |
| CN(C)C(=O)c1cccc(-c2ccc([C@H]3[C@H](CO)N4CCCCN(C(=O)C5CCC5)C[C@@H]34)cc2)c1 | 11.8% (inactive) |
| CC(C)(C)[S@](=O)N1Cc2cc(C(=O)NCc3ccc4c(c3)OCO4)nc(-c3cccc(-c4ccncc4)c3)c2[C@@H]1CCO | -21.4% (inactive) |
| C[C@H]1CN([C@@H](C)CO)C(=O)c2cccc(NC(=O)c3ccncc3)c2O[C@@H]1CN(C)Cc1c(Cl)cccc1Cl | 16% (inactive) |
| CN(C)CC#Cc1cccc(-c2nc(C(=O)NCc3ccc4c(c3)OCO4)cc3c2[C@H](CCO)N(S(=O)C(C)(C)C)C3)c1 (some centres not stated) | 6.62% (inactive) |
| CC(C)(C)[S@@](=O)N1Cc2cc(C(=O)NCc3ccc4c(c3)OCO4)nc(-c3cccc(-c4ccccc4)c3)c2[C@H]1CCO | 14.4% (inactive) |
| CC(C)N1C[C@@H](CN(C)Cc2ccc(Cl)cc2)Oc2c(NC(=O)c3ccncc3)cccc2C1=O | -18% (inactive) |
| CC(C)N1C[C@H](CNCc2ccc(Cl)cc2)Oc2c(NC(=O)c3ccncc3)cccc2C1=O | -20.3% (inactive) |
| C[C@@H]1CCCCO[C@H](CN(C)C(=O)Nc2cccc3ccccc23)[C@@H](C)CN([C@H](C)CO)C(=O)c2cc(N(C)C)ccc2O1 | -0.649% (inactive) |
| CCC(=O)N1CC[C@@H]2[C@H]1c1cc(-c3ccccc3)ccc1N(C)[C@@H]2CO | -26.5% (inactive) |
| CN(C)C(=O)c1cccc(-c2ccc([C@H]3[C@@H](CO)N4CCCCN(C(=O)C5CCC5)C[C@@H]34)cc2)c1 | 1.53% (inactive) |
| COc1cccc(-c2ccc([C@H]3[C@H](CO)N4CCCCN(C(=O)Cc5ccncc5)C[C@@H]34)cc2)c1 | -1.62% (inactive) |

Same assay, conditions: NIH/3T3 mouse fibroblast toxicity, plate reader; at 18 µM (top of the series)

| SMILES | activity change, negative = toxicity |
| --- | --- |
| Cc1ccc(S(=O)(=O)N(C)C[C@H]2OCCCC[C@@H](C)Oc3ccc(N(C)C)cc3C(=O)N([C@H](C)CO)C[C@@H]2C)cc1 | 25.8% (inactive) |
